Measured values as given in the NIST ThermoML archive (doi:10.1016/j.jct.2017.07.013).
± gives the expanded uncertainty stated by the source.

Assay: xn = mol fraction of the nth substance listed
Details: 101.3 kPa, Liquid; for speed of sound: Frequency=3 MHz, Single path-length method; for mass density: Vibrating tube method

CCCC[n+]1ccn(C)c1.O=S(=O)([N-]S(=O)(=O)C(F)(F)F)C(F)(F)F + COC(=O)OC
Details	mass density, 303.15 K [kg/m3]	mass density, 308.15 K [kg/m3]	mass density, 313.15 K [kg/m3]	mass density, 318.15 K [kg/m3]	mass density, 323.15 K [kg/m3]	speed of sound, 303.15 K [m/s]	speed of sound, 308.15 K [m/s]	speed of sound, 313.15 K [m/s]	speed of sound, 318.15 K [m/s]	speed of sound, 323.15 K [m/s]
x1 = 0.0512	1120.1 ± 2.3	1113.8 ± 2.3	1107.5 ± 2.3	1101.2 ± 2.3	1094.9 ± 2.3	1187 ± 1.1	1167.2 ± 1.2	1147.5 ± 1.2	1127.6 ± 1.2	1108.3 ± 1.2
x1 = 0.101	1168.9 ± 2.2	1163 ± 2.2	1157 ± 2.2	1151 ± 2.2	1145 ± 2.2	1196.1 ± 1.2	1177.7 ± 1.2	1159.4 ± 1.2	1141 ± 1.2	1123 ± 1.2
x1 = 0.1495	1207.1 ± 2.1	1201.3 ± 2.1	1195.5 ± 2.1	1189.8 ± 2.1	1184 ± 2.1	1203.7 ± 1.2	1186.5 ± 1.2	1169.4 ± 1.2	1152.4 ± 1.2	1135.6 ± 1.2
x1 = 0.1945	1236.1 ± 2.1	1230.5 ± 2.1	1224.9 ± 2.1	1219.3 ± 2.1	1213.7 ± 2.1	1209.2 ± 1.2	1192.9 ± 1.2	1176.8 ± 1.2	1160.8 ± 1.2	1144.9 ± 1.2
x1 = 0.2994	1288.3 ± 2.1	1282.9 ± 2.1	1277.6 ± 2.1	1272.2 ± 2.1	1266.9 ± 2.1	1215.4 ± 1.2	1200.7 ± 1.2	1186.2 ± 1.2	1171.7 ± 1.2	1157.4 ± 1.2
x1 = 0.3999	1324.3 ± 2	1319.1 ± 2	1313.9 ± 2	1308.8 ± 2	1303.6 ± 2	1217.4 ± 1.2	1203.8 ± 1.2	1190.3 ± 1.2	1176.9 ± 1.2	1163.6 ± 1.2
x1 = 0.4976	1351.4 ± 2	1346.3 ± 2	1341.2 ± 2	1336.2 ± 2	1331.1 ± 2	1217.7 ± 1.3	1204.9 ± 1.3	1192.1 ± 1.3	1179.5 ± 1.3	1166.9 ± 1.3
x1 = 0.5842	1370.7 ± 2	1365.6 ± 2	1360.7 ± 2	1355.7 ± 2	1350.7 ± 2	1217.4 ± 1.3	1205 ± 1.3	1192.8 ± 1.3	1180.6 ± 1.3	1168.6 ± 1.3
x1 = 0.6886	1389.7 ± 2.1	1384.8 ± 2.1	1379.8 ± 2	1374.9 ± 2	1370.1 ± 2	1217.4 ± 1.3	1205.5 ± 1.3	1193.7 ± 1.3	1182.1 ± 1.3	1170.5 ± 1.3
x1 = 0.7475	1399 ± 2.1	1394.1 ± 2.1	1389.2 ± 2.1	1384.3 ± 2.1	1379.5 ± 2.1	1217.2 ± 1.3	1205.6 ± 1.3	1194 ± 1.3	1182.6 ± 1.3	1171.3 ± 1.3
x1 = 0.8014	1406.6 ± 2.1	1401.8 ± 2.1	1396.9 ± 2.1	1392.1 ± 2.1	1387.3 ± 2.1	1217 ± 1.3	1205.6 ± 1.3	1194.2 ± 1.3	1183 ± 1.3	1171.8 ± 1.3
x1 = 0.889	1417.4 ± 2.1	1412.6 ± 2.1	1407.8 ± 2.1	1403 ± 2.1	1398.2 ± 2.1	1216.8 ± 1.4	1205.6 ± 1.4	1194.5 ± 1.4	1183.6 ± 1.4	1172.7 ± 1.4
x1 = 0.9526	1424.2 ± 2.1	1419.4 ± 2.1	1414.6 ± 2.1	1409.9 ± 2.1	1405.1 ± 2.1	1216.8 ± 1.4	1205.7 ± 1.4	1194.8 ± 1.4	1184 ± 1.4	1173.3 ± 1.4
x1 = 1	1428.9 ± 2.1	1424.1 ± 2.1	1419.4 ± 2.1	1414.6 ± 2.1	1409.9 ± 2.1	1216.8 ± 1.4	1205.8 ± 1.4	1195 ± 1.4	1184.2 ± 1.4	1173.6 ± 1.4
